What is called IC50 is the point on the concentration scale where inhibition reaches its midpoint.

Experimental findings from ChEMBL document CHEMBL3853274, “Ibogan, Aspidosperman, Vincamine, and Bisindole Alkaloids from a Malayan Tabernaemontana corymbosa: Iboga Alkaloids with C-20α Substitution” (J Nat Prod, 2016) are described below.

Type in all cases: functional, cell-based
The nature of test [1]: Cytotoxicity against vincristine-resistant human KB/VJ300 cells in presence of 0.12 uM vincristine after 72 hrs by MTT assay. The conditions noted are these: KB/VJ300, 72 h.
A short description of test [2]: Cytotoxicity against vincristine-sensitive human KB cells after 72 hrs by MTT assay. For orientation: Formazan colour is commonly taken as a measure of viable cells.
A short description of test [3]: Cytotoxicity against vincristine-resistant human KB/VJ300 cells after 72 hrs by MTT assay. The conditions noted are these: KB/VJ300, 72 h.

`C/C=C1/CN(C)[C@H]2Cc3c([nH]c4ccccc34)[C@@H](c3ccc4c5c([nH]c4c3)[C@@H]3C[C@H]4C[C@H](CC)[C@@H]3N(CC5)C4)C[C@@H]1[C@@H]2C(=O)OC`: the IC50 was 0.9 µM in test [1], 1.2 µM in test [2] and 1.4 µM in test [3].

Regarding `C/C=C1/CN(C)[C@H]2Cc3c([nH]c4ccccc34)[C@@H](c3ccc4c5c([nH]c4c3)[C@@H]3C[C@H]4C[C@H]([C@@H](C)O)[C@@H]3N(CC5)C4)C[C@@H]1[C@@H]2C(=O)OC`, the IC50 in test [1] worked out at 1.3 µM; in test [2], 3.3 µM; in test [3] it was 2.7 µM.

Turning to `C/C=C1/CN(C)[C@H]2Cc3c([nH]c4ccccc34)[C@@H](c3ccc4c5c([nH]c4c3)[C@@H]3C[C@H]4C[C@H]([C@H](C)O)[C@@H]3N(CC5)C4)C[C@@H]1[C@@H]2C(=O)OC`, the figures for the IC50 in test [1], in test [2] and in test [3] were 1.8 µM, 4.6 µM and 4.1 µM, respectively.
